Test results from ChEMBL document CHEMBL1126388, “Synthesis of metabolically stable arylpiperazine 5-HT1A receptor agonists” (Bioorg Med Chem Lett, 1992).
pKi: −log10 of the molar value.

Experiments:
[1] = target: T1, 5-hydroxytryptamine receptor 1A (Mus musculus, UniProt Q64264); assay: Compound was tested for binding affinity to 5-hydroxytryptamine 1A receptor using [3H]8-OH-DPAT as a radioligand
T1 sequence (Q64264 whole entry): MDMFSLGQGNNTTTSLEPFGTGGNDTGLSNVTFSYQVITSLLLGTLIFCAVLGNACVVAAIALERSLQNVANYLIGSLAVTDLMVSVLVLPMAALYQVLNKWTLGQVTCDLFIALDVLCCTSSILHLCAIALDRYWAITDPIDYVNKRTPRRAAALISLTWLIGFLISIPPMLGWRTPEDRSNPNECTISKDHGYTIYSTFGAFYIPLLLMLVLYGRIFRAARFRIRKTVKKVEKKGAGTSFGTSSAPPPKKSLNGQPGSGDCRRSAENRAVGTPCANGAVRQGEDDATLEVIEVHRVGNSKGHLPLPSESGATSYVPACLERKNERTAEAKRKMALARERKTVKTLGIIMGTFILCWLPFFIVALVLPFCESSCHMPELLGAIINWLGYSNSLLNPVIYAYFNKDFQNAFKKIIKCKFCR

[2] = test system: Mus musculus; assay: Effective dose required for hypothermia activity after subcutaneous administration at 1.9 degree F temp in mouse; format: functional; conditions: sc
[3] = test system: Mus musculus; assay: Effective dose required for hypothermia activity after >120 min of oral administration at 4.0 degree F temp in mouse; format: functional; conditions: 2 h
[4] = test system: Mus musculus; assay: Effective dose required for hypothermia activity after subcutaneous administration at 6.4 degree F temp in mouse; format: functional; conditions: sc
[5] = test system: Mus musculus; assay: Effective dose required for hypothermia activity after subcutaneous administration at 3.8 degree F temp in mouse; format: functional; conditions: sc
[6] = test system: Mus musculus; assay: Effective dose required for hypothermia activity after 20 min of oral administration at 2.9 degree F temp in mouse; format: functional

Structure (SMILES) | pKi [1] | ED50 [2] [µmol/kg] | ED50 [3] [µmol/kg] | ED50 [4] [µmol/kg] | ED50 [5] [µmol/kg] | ED50 [6] [µmol/kg]
O=C1c2ccccc2S(=O)(=O)N1C[C@@H]1C[C@@H]1CN1CCN(c2ncccn2)CC1 | 7.36 | > 0.055 |  |  |  | 
O=C1c2ccccc2S(=O)(=O)N1C[C@H]1C[C@@H]1CN1CCN(c2ncccn2)CC1 | 8.06 |  | 0.19 | 0.0032 |  | 
O=C1c2ccccc2S(=O)(=O)N1CCCCN1CCN(c2ncccn2)CC1 [IPSAPIRONE] | 7.92 |  |  |  | 0.00527 | 0.23
